{"source": "patent US7943173B2", "about": "“Pharmaceutical combinations of oxycodone and naloxone” (Purdue Pharma L.P., priority 2001, dated 2011)", "key": {"[1]": {"assay": "Example 8: adverse events", "type": "in vivo, human", "protocol": "There were no deaths or serious adverse events. No subjects discontinued because of adverse events. The majority of drug-related adverse events occurred when subjects were dosed with Talwin® Nx. These included nausea, vomiting, dizziness, and headache. One subject withdrew consent due to a schedule conflict.\nEleven of 18 subjects experienced a total of 25 adverse events, none serious. Seven of these subjects experienced adverse events described as possibly, probably, or definitely related to the study medication. Overall, adverse events were more frequently reported in subjects receiving Talwin® Nx, consistent with expected adverse events related to pentazocine. All subjects recovered from all adverse events. No action (e.g., discontinuation) was taken with regard to the study drug."}, "clinical [2]": {"assay": "clinical", "conditions": "both, human, plasma, oral", "experimental": "Up to 96 subjects were to be enrolled in order to complete a minimum of 48 subjects who were evaluable for pharmacokinetics. […] Subjects successfully completing the Narcan® challenge were randomly assigned to 1 of 2 crossover treatment sequences (reference to test or test to reference) with a 5-day washout period separating dosing in the 2 periods. Subjects were confined to the study facility continuously from Day-1 until Day 10. […] All doses were administered with 8 ounces of water after an overnight fast (excluding water). […] Plasma concentrations of oxycodone and naloxone (as applicable) were determined, and pharmacokinetic metrics were calculated and analyzed. […] For the purpose of statistical analyses, Period 1 was defined as the time from administration of the first dose (Day 2) to just prior to administration of the second dose (Day 7). Period 2 was defined as the time from administration of the second dose (Day 7) to the time of the 72-hour postdose blood collection on Day 10."}, "clinical [3]": {"assay": "clinical", "conditions": "both, human, plasma; for AUC(0-t): AUCt; for AUC(0-t) / Cmax / Tmax: plasma naloxone", "experimental": "In Example 8, a single-center, open-label, randomized, 4-period, 4-sequence, 4-treatment crossover study in 18 normal, healthy, young adult, male and female subjects under fasted conditions was conducted. […] Subjects were randomly assigned to four sequences with periods consisting of the following: • Period 1 was Days 1-8 (from the time of the first dose until the time of the second dose), • Period 2 was Days 8-15 (from the time of the second dose until the third dose), • Period 3 was Days 15-22 (from the third dose until the fourth dose), and • Period 4 was Days 22 (from the time of the last dose until the end of the study).\nDosing took place on Days 1, 8, 15, and 22. For the duration of the study, subjects were instructed not to engage in heavy exercise.\nTalwin® Nx was administered with 8 ounces of water, which the subjects drank completely. Afterwards, mouth inspections were done to ensure that each subject swallowed the tablet.\nFollowing the single oral dose of naloxone, subjects drank two additional 75 ml rinses of water, for a total volume of 225 ml. For divided doses (also 0.02 mg/ml), the first dose was followed by two 94 ml rinses of water, and subsequent doses were followed by two 75 ml rinses of water.\nIntravenous naloxone was administered by IV push. Following IV naloxone, subjects were observed by staff members continuously for at least 20 minutes.\nEach subject received each treatment one time. Each treatment followed an overnight fast (excluding water) of at least 10 hours, and after dosing, the subjects fasted for an additional 4 hours. Except for the days of dosings, there were no food restrictions. While subjects were confined to the clinical unit all meals were served at standardized times, and the content was standardized throughout the study and between subjects. Meal records were maintained, including content. No caffeine or xanthine-containing beverages were served while the subjects were in the clinical facility."}, "[4]": {"conditions": "conclusions of the study, treatment not named"}, "[5]": {"conditions": "iv, 0.5 mg, 0.5 mg IV naloxone HCl, arithmetic mean (SD)"}, "[6]": {"conditions": "po, 1.5 mg, 1.5 mg naloxone HCl oral divided doses, arithmetic mean (SD)"}, "[7]": {"conditions": "po, 1.5 mg, 1.5 mg naloxone HCl single oral dose, 18 subjects, arithmetic mean (SD)"}}, "note": "Counter-ions that a name gives are not always drawn. Marks after values point to notes of the source that are not given here.", "data": [{"smiles": "C=CCN1CC[C@]23c4c5ccc(O)c4O[C@H]2C(=O)CC[C@@]3(O)[C@H]1C5", "note": "[Naloxone HCl, naloxone hydrochloride]", "values": [{"measurement": "adverse events considered possibly, probably, or definitely related to study drug", "setting": "[1]; 0.5 mg intravenous naloxone", "value": "nausea possibly related"}, {"measurement": "adverse events considered possibly, probably, or definitely related to study drug", "setting": "[1]; 1.5 mg oral naloxone in divided doses", "value": "headache possibly related"}, {"measurement": "tolerability", "setting": "[1]; given alone, total doses of 0.5 mg IV and up to 1.5 mg orally", "value": "well tolerated"}, {"measurement": "adverse events during the naloxone challenge test", "setting": "[1]; intravenous challenge at screening, 18 subjects randomized", "value": "No adverse events were observed"}, {"measurement": "Cmax", "setting": "clinical [2]", "value": "0.00213 ± 0.00447", "unit": "ng/mL"}, {"measurement": "Tmax", "setting": "clinical [2]", "value": "3.35 ± 3.69", "unit": "h"}, {"measurement": "half-life", "setting": "clinical [2]", "value": "4.3 ± 3.03", "unit": "h"}, {"measurement": "AUC0-∞, dose normalized", "setting": "Dose Normalized to 0.5 mg IV Naloxone HCl dose, 0.5 mg IV arm, 15 subjects", "value": "3051 (668)^a pg · h/ml"}, {"measurement": "Mean naloxone peak exposure", "setting": "[4]", "value": 8, "unit": "pg/mL"}, {"measurement": "naloxone peak exposure, range", "setting": "[4]", "value": "0 to 16.6", "unit": "pg/mL"}, {"measurement": "AUC(0-inf)", "setting": "clinical [3]; iv, 0.5 mg", "value": 3.05, "unit": "ng·h/mL"}, {"measurement": "clearance", "setting": "clinical [3]; iv, 0.5 mg", "value": 2850, "unit": "mL/min"}, {"measurement": "AUC(0-t)", "setting": "clinical [3]; iv, 0.5 mg, 0.5 mg IV naloxone HCl, fasted healthy subjects, arithmetic mean (SD)", "value": 3.2, "unit": "ng·h/mL"}, {"measurement": "Cmax", "setting": "clinical [3]; [5]", "value": 6.25, "unit": "ng/mL"}, {"measurement": "half-life", "setting": "clinical [3]; iv, 0.5 mg, t1/2, plasma naloxone, 0.5 mg IV naloxone HCl, 15 subjects, arithmetic mean (SD)", "value": 0.92, "unit": "h"}, {"measurement": "Tmax", "setting": "clinical [3]; [5]", "value": 0.14, "unit": "h"}, {"measurement": "AUC(0-t)", "setting": "clinical [3]; po, 1.5 mg, 1.5 mg naloxone HCl oral divided doses (0, 3, 6, 9 h), arithmetic mean (SD)", "value": 0.0649, "unit": "ng·h/mL"}, {"measurement": "AUC(0-t)", "setting": "clinical [3]; po, 1.5 mg, 1.5 mg naloxone HCl single oral dose (solution), 18 subjects, arithmetic mean (SD)", "value": 0.0474, "unit": "ng·h/mL"}, {"measurement": "Cmax", "setting": "clinical [3]; [6]", "value": 0.0134, "unit": "ng/mL"}, {"measurement": "Cmax", "setting": "clinical [3]; [7]", "value": 0.023, "unit": "ng/mL"}, {"measurement": "bioavailability", "setting": "clinical [3]; po, 1.5 mg, F (%) absolute bioavailability, 1.5 mg naloxone HCl oral divided doses, based on AUCt, mean (SD)", "value": 0.66, "unit": "%"}, {"measurement": "bioavailability", "setting": "clinical [3]; po, 1.5 mg, F (%) absolute bioavailability, 1.5 mg naloxone HCl single oral dose, based on AUCt, mean (SD)", "value": 0.47, "unit": "%"}, {"measurement": "Tmax", "setting": "clinical [3]; [6]", "value": 3.18, "unit": "h"}, {"measurement": "Tmax", "setting": "clinical [3]; [7]", "value": 0.78, "unit": "h"}, {"measurement": "bioavailability", "setting": "clinical [3]; po, absolute bioavailability of naloxone, all three oral treatments studied", "value": "< 1", "unit": "%"}]}]}
